Test results published in ChEMBL document CHEMBL2021926, “Serendipity in discovery of proteasome inhibitors” (Bioorg Med Chem Lett, 2012).

What was measured:
[1] = Inhibition of chymotrypsin-like activity of 26S proteasome
[2] = Inhibition of chymotrypsin-like activity of 26S proteasome in human Molt4 cells using MeOSuc-Phe-Leu-Phe-AFC substrate; format: cell-based; conditions: MOLT-4
[3] = Inhibition of chymotrypsin-like activity of human liver 26S proteasome using Suc-LLVY-AMC substrate

EC50 [2] | IC50 [3] | SMILES | IC50 [1]
– | – | CC(C)C[C@@H](C=O)NC(=O)[C@H](CCCN/C(N)=N/[N+](=O)[O-])NC(=O)C(CCCCCCCCC#N)C1CCCC1 (some centres undefined) | 6 nM
21 nM | 4 nM | CC(C)C[C@H](NC(=O)[C@H](Cc1ccccc1)NC(=O)c1cnccn1)B(O)O [BORTEZOMIB] | –
120 nM | 1 nM | CC(C)C[C@H](NC(=O)C(NC(=O)[C@H](CC(C)C)NC(=O)OCc1ccccc1)C(C)O)B1O[C@@H]2C[C@@H]3C[C@@H](C3(C)C)[C@]2(C)O1 (single isomer, unassigned) | –
– | > 10 nM | CCCCCC(=O)N[C@H](C(=O)N[C@@H](CC(C)C)B1O[C@@H]2C[C@@H]3C[C@@H](C3(C)C)[C@]2(C)O1)[C@@H](C)O | –
– | > 10 nM | CC(C)C[C@H](NC(=O)[C@@H](N)[C@@H](C)O)B1O[C@@H]2C[C@@H]3C[C@@H](C3(C)C)[C@]2(C)O1 | –
– | – | CC(C)C[C@H](NC(=O)[C@H](CCCN/C(N)=N/[N+](=O)[O-])NC(=O)C(CCCCCCCCC#N)C1CCCC1)C(=O)C(=O)NCCNS(=O)(=O)c1ccccc1 (some centres undefined) | 1 nM
100 nM | 7 nM | CC(C)C[C@H](NC(=O)[C@@H](NC(=O)C(CCCCCCCCN1C(=O)c2ccccc2C1=O)C1CCCC1)[C@@H](C)O)B1O[C@@H]2C[C@@H]3C[C@@H](C3(C)C)[C@]2(C)O1 (mixture of isomers) | –
– | – | CC(C)C[C@H](NC(=O)[C@H](CCCN/C(N)=N/[N+](=O)[O-])NC(=O)C(CCCCCCCCC#N)C1CCCC1)B1OC(C)(C)C(C)(C)O1 (some centres undefined) | 6 nM
– | > 10 nM | CC(C)C[C@H](NC(=O)[C@@H](NC(=O)c1ccccc1)[C@@H](C)O)B1O[C@@H]2C[C@@H]3C[C@@H](C3(C)C)[C@]2(C)O1 | –
– | > 10 nM | CC(C)C[C@H](NC(=O)[C@@H](NC(=O)OC(C)(C)C)[C@@H](C)O)B1O[C@@H]2C[C@@H]3C[C@@H](C3(C)C)[C@]2(C)O1 | –
– | – | CC(C)C[C@@H](C=O)NC(=O)[C@H](CCCN/C(N)=N/[N+](=O)[O-])NC(=O)C(CCCCCCCCN1C(=O)c2ccccc2C1=O)C1CCCC1 (some centres undefined) | 2 nM
– | > 10 nM | CC(C)C[C@H](NC(=O)[C@@H](NC(=O)OCc1ccccc1)[C@@H](C)O)B1O[C@@H]2C[C@@H]3C[C@@H](C3(C)C)[C@]2(C)O1 | –
– | > 10 nM | CC(C)C[C@H](NC(=O)[C@@H](NC(=O)c1cnccn1)[C@@H](C)O)B1O[C@@H]2C[C@@H]3C[C@@H](C3(C)C)[C@]2(C)O1 | –
– | > 10 nM | COCCOCCOCC(=O)N[C@H](C(=O)N[C@@H](CC(C)C)B1O[C@@H]2C[C@@H]3C[C@@H](C3(C)C)[C@]2(C)O1)[C@@H](C)O | –

SMILES | EC50 [2] | IC50 [3] | IC50 [1]
CC(C)C[C@H](NC(=O)[C@H](CCCN/C(N)=N/[N+](=O)[O-])NC(=O)C(CCCCCCCCN1C(=O)c2ccccc2C1=O)C1CCCC1)B1OC2C[C@@H]3C[C@@H](C3(C)C)[C@]2(C)O1 (some centres undefined) | 70 nM | 3.5 nM | –
